# Patent EP1018299A2, “Plant treatment agents” (BAYER AG, priority 1992, dated 1994)
# Assay: UDOS (unilateral desorption from the outer surface): effect of accelerators on the mobility of 14C-labelled 2,4-D in isolated cuticles
# Format: in vitro ADME, Citrus
# Settings: Abb. 11; for Zeitabhängigkeit der Effekte: effects increased with time; for Wirkungen (Effekt auf die Mobilität von 2,4-D): compared with Heptanol, Octanol, Nonanol and Decanol
smiles,measurement,value
CCCCCCO [Hexanol],Zeitabhängigkeit der Effekte,stark zeitabhängig
same,"Wirkungen (Effekt auf die Mobilität von 2,4-D)",deutlich niedriger
CCCCCCCCCCCCO [Dodecanol],Zeitabhängigkeit der Effekte,stark zeitabhängig
same,"Wirkungen (Effekt auf die Mobilität von 2,4-D)",deutlich niedriger
